Experimental data reported in patent US20220133895A1, “CAMPTOTHECIN-BASED DIMER COMPOUND, ANTICANCER DRUG AND METHOD OF ELIMINATING CANCER STEM CELL” (HUAZHONG UNIVERSITY OF SCIENCE AND TECHNOLOGY, priority 2020, published 2022).
pIC50: −log10 of the molar value.

Key:
[1] = system: mouse 4T1 breast cancer orthotopic tumor; test: Effect on antitumor immune response (DC maturation, Treg) in 4T1 tumor mice; format: in vivo; settings: for regulatory T cells (Treg) in tumors: flow cytometry CD3, CD4, CD25, FoxP3
Text: The effect of the compound CN on antitumor immune response is studied, the specific steps were proceeded as follows. The tumor and adjacent lymph nodes of the mice in Example 4 were stripped. […] The adjacent lymph nodes were squeezed through a 200-mesh screen to prepare a single cell suspension, and the maturation of lymph node dendritic cells (DC cells, CD11c, CD80, CD86) was studied with antibodies.

[2] = system: mouse 4T1 breast cancer orthotopic tumor; test: In vivo anti-tumor activity, intratumoral injection, 4T1 orthotopic model; settings: for tumor suppression rate: BALB/c mice, CPT 1 mg/kg or CN 2.4 mg/kg intratumoral, NLG 500 ug/mouse gavage
[3] = system: cancer stem cells; test: Effect on cancer stem cells (cell cycle, 3D tumor spheroids) from treated 4T1 tumors; format: in vivo, mouse; settings: for G1-S cell cycle / dormancy of cancer stem cells: CD133, EdU, hoechst33342 flow cytometry
Procedure: The effect of the compound CN on cancer stem cells is studied, the specific steps were proceeded as follows. In the single cell suspension prepared in Example 6, the cell cycle (CD133, EdU, hoechst33342) of cancer stem cells was stained with antibodies, and the dormancy of the cancer stem cells was analyzed by flow cytometry. […] Fibrinogen was diluted to 20 mg/mL with T7 buffer (pH 7.4, 50 mM Tris, 150 mM NaCl), and then mixed with the above cell suspension in equal volume. 1 μL of thrombin (0.1 U/μL) was added to the 96-well plate in advance, and 50 μL of the mixed cell suspension was added. […] On the seventh day, the cell pellets in the 96-well plate were photographed and counted. The particle size of tumor cell spheroids was measured, and the number of tumor cell spheroids was counted to characterize the stemness and tumor-forming ability of tumor cells.

[4] = system: mouse 4T1 breast cancer orthotopic tumor; test: Influence on the cancer stem cell niche, 4T1 orthotopic model; format: in vivo; settings: tail vein, day 13, CD133, EdU, hoechst33342
Procedure: At the age of 6 weeks, 20 g female BALB/c mice were inoculated with 5×10^5 cells of mouse breast cancer 4T1 cell suspension into the fourth pair of left breast pads on the abdomen of female BALB/c mice to establish a mouse model of 4T1 tumor in situ. […] The administration time on the first day was recorded as the first day, and then the above-mentioned doses were administered on the 4th, 7th, and 10th days. On the 13th day, 50 μL of Edu (8 mg/ml) was injected into the tumor. Three hours later, the mice were sacrificed, the tumor in situ was stripped and divided into two parts. […] Flow cytometric analysis of the cell cycle (CD133, EdU, hoechst33342) of cancer stem cells was carried out to investigate the effect of drugs on the dormancy of cancer stem cells.

[5] = system: 4T1 (breast cancer) cells; test: In vitro induction of immunogenic cell death; format: cell-based, mouse; settings: 4T1 cells, 10 μM, 48 hours
Procedure: The in vitro activity of the compound CN in inducing immunogenic cell death was evaluated.
4T1 (breast cancer) cells were seeded into a 6-well plate at a density of 1×10^5 cells per well and cultured overnight. The cells were treated with PBS, CPT (camptothecin), NLG (IDO inhibitor), CPT+NLG, CN (all drug concentrations were 10 μM) for 48 hours. The supernatant was collected and cultured to detect the release of ATP and HMGB-1. The cells were trypsinized, then incubated with CRT antibody on ice for 30 minutes in the dark, and analyzed by flow cytometry. In addition, CRT eversion was also studied by immunofluorescence imaging. 4T1 cells were seeded into a confocal culture dish at a density of 1×10^5 cells per well and cultured overnight. The cells were treated with PBS, CPT (camptothecin), NLG (IDO inhibitor), CPT+NLG, CN (all drug concentrations were 10 μM) for 48 hours. The cells were washed twice with PBS and incubated with CRT antibody for 30 minutes. Washing was performed twice with PBS, and fixing was then performed with 4% paraformaldehyde. After washing was performed twice with PBS again, the nucleus was stained with DAPI for 30 minutes. After washing was performed twice, the cells were imaged with a confocal microscope.

[6] = Reduction responsiveness in GSH solution, by mass spectrometry; format: physicochemical; settings: 100 mM GSH aqueous solution, stirred 12 hours
Procedure: Study on the reduction responsiveness of compounds was performed as follows.
A small amount of the compound CN was added to 100 mM GSH aqueous solution and stirred for 12 hours.

[7] = target: T1, IDO (Homo sapiens, UniProt P14902); test: In vitro IDO inhibitory activity in IFN-γ-stimulated Hela cells; format: cell-based
T1 construct: endogenous in cells; host or cells: HeLa cells stimulated with human IFN-γ
Procedure: The inhibitory activity of the compound CN on IDO in vitro was investigated.
Hela cells were plated with a 96-well plate at 4,000 cells/well in DMEM complete medium containing 80 ng/ml of human IFN-γ, and incubated with a series of DMEM medium containing CN or NLG at a concentration of 0 μM, 0.1 μM, 1 μM, 10 μM, and 100 μM for 24 hours after 12 hours. 150 ul culture medium was aspirated, 75 ul trichloroacetic acid aqueous solution (30% w/v) was added, incubated at 50° C. for 30 min, and centrifuged at 3000 rpm for 10 minutes. 100 ul of the supernatant was collected, 100 ul of p-dimethylaminobenzaldehyde glacial acetic acid solution (2%, w/v) was added, placed at room temperature for 10 minutes, and the absorption was detected at 492 nm.

[8] = system: mouse 4T1 breast cancer orthotopic tumor; test: Anti-tumor activity of CN@PHF, tail vein, 4T1 orthotopic model; format: in vivo; settings: CN 2.4 mg/kg, days 1, 4, 7, 10
Text: The anti-tumor activity of CN@PHF in the mouse 4T1 breast cancer orthotopic tumor model was investigated and the specific steps were proceeded as follows:
At the age of 6 weeks, 20 g female BALB/c mice were inoculated with 5×10^5 cells of mouse breast cancer 4T1 cell suspension into the fourth pair of left breast pads on the abdomen of female BALB/c mice to establish a mouse model of 4T1 tumor in situ. When the tumor volume in situ was about 100 mm^3, the mice were randomly divided into 5 groups, 10 mice in each group, and were injected with normal saline, CN, Taxol, Irinotecan, CN@PHF through the tail vein. The dose of CN was 2.4 mg/kg, and the concentrations of Taxol and Irinotecan were the same as the molar concentration of CN. The administration time on the first day was recorded as the first day, and then the above-mentioned doses were administered on the 4th, 7th, and 10th days. From the 1st day, the mouse body weight and tumor volume were measured every other day, and the tumor volume-time curve was drawn. The mice were sacrificed on the 19th day, the tumor in situ was removed, weighed, and photographed. Tumors were stained with HE and TUNEL to study tumor cell apoptosis and stained with Ki67 to study tumor cell proliferation.

T1 sequence (P14902 whole entry): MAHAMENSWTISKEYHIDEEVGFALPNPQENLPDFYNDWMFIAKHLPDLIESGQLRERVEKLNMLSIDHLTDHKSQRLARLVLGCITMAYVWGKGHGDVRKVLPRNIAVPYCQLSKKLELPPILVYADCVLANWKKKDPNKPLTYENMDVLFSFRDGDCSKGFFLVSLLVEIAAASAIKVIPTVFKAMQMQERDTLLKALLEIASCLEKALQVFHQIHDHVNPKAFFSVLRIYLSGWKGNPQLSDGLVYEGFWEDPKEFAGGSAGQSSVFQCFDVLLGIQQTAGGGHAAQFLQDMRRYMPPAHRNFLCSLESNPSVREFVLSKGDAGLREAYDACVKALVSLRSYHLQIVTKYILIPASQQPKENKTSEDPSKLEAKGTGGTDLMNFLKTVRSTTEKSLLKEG

CC[C@@]1(O)C(=O)OCc2c1cc1n(c2=O)Cc2cc3ccccc3nc2-1 [CPT, camptothecin]
regulatory T cells (Treg) in tumors [1]: significant increase in Treg
tumor suppression rate ([2]; days 1, 4, 7, 10): 61.9%
G1-S cell cycle / dormancy of cancer stem cells [3]: block the G1-S cell cycle of cancer stem cells

CCc1c2c(nc3ccc(OC(=O)N4CCC(N5CCCCC5)CC4)cc13)-c1cc3c(c(=O)n1C2)COC(=O)[C@]3(O)CC [Irinotecan]
dormancy / cycle inhibition of cancer stem cells [4]: increase the dormancy of cancer stem cells

CC[C@@]1(OC(=O)OCSSCOC(=O)OC(CC2c3ccccc3-c3cncn32)C2CCCCC2)C(=O)OCc2c1cc1n(c2=O)Cc2cc3ccccc3nc2-1 (stereo partly drawn) [CN]
regulatory T cells (Treg) in tumors [1]: reverse the increase in Treg caused by CPT
DC maturation in lymph nodes adjacent to tumors ([1]; flow cytometry CD11c, CD80, CD86): increased significantly
proportion of mature DC relative to CPT group ([1]; lymph nodes adjacent to tumors): about twice that of CPT group
ATP release relative to CPT and CPT+NLG groups [5]: 2-3 times
CRT eversion, confocal imaging [5]: more CRT eversion
ability to induce CRT eversion relative to CPT group, flow cytometry [5]: about 1.5 times
ability to induce HMGB-1 [5]: significantly stronger than that of the other groups
reduction responsiveness (degradation products) [6]: degraded to the original camptothecin and NLG919
pIC50 [7]: ~7.10
inhibition at 1 µM ([7]; HeLa, read-out: IDO inhibition rate): ~100%
tumor suppression rate ([2]; days 1, 4, 7, 10): 85%
tumor volume ([2]; intratumoral injection, 2.4 mg/kg, days 1, 4, 7, 10): significantly smaller than that of the other groups
tumor elimination ([2]; intratumoral injection, 8 mice per group, day 15): one tumor was completely eliminated
weight of the tumor ([2]; intratumoral injection, sacrificed day 15): significantly lower than that of the other groups
tumor volume [8]: significantly smaller than the normal saline group and the positive drugs Taxol and Irinotecan groups
G1-S cell cycle / dormancy of cancer stem cells [3]: significantly reduce the G1/S ratio
number and particle size of 3D spheres of tumor cells ([3]; fibrin gel culture, seventh day): significantly lower than those in the other groups
